Where a name gives a salt, the structure may show the parent alone.
Key:
[1] = molecular target: T1, recombinant human MAO-A (Homo sapiens, UniProt P21397); test: Inhibition of human recombinant MAO-A; assay type: biochemical; settings: incubation time of 2 hours, tyramine 100 μM
T1 construct: purchased Sigma Aldrich
T1 sequence (P21397 1-527): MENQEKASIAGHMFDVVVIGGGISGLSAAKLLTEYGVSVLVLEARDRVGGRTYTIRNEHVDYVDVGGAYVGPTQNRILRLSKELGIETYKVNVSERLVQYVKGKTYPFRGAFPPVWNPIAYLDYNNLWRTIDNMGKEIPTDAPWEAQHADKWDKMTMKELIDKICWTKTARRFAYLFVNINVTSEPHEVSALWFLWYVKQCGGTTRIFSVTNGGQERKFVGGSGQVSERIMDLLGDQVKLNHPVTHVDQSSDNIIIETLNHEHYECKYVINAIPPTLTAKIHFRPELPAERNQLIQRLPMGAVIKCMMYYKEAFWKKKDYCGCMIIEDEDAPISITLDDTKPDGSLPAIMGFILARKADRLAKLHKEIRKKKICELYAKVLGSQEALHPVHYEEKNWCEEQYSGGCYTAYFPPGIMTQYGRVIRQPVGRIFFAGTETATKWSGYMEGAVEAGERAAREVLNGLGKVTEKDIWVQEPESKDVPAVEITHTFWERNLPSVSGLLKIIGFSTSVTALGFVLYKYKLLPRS
Description: Method to Determine the Ability of Compounds of Formula I to Inhibit Human Recombinant MAO-A
The selectivity of the compounds of this invention was tested by determining their ability to inhibit MAO-A activity in vitro, using recombinant human MAO-A (0.003 mg/mL; Sigma Aldrich). The assay was performed in a similar way as for human SSAO/VAP-1 (EXAMPLE 9) except, the substrate tyramine was used at 100 μM in place of benzylamine and the assay was run after an incubation time of 2 hours.

[2] = molecular target: T2, Adipose Tissue SSAO/VAP-1 (Mus musculus, UniProt O70423); test: Mouse adipose tissue SSAO/VAP-1 activity after oral administration; assay type: in vivo; settings: for SSAO/VAP-1 activity in adipose tissue: C57BL/6J mice, single oral dose, FIG. 8
T2 construct: from tissue; host or cells: abdominal fat of C57BL/6J and mdx (C57BL/10ScSn-Dmdmdx/J) mice
T2 sequence (O70423 1-765): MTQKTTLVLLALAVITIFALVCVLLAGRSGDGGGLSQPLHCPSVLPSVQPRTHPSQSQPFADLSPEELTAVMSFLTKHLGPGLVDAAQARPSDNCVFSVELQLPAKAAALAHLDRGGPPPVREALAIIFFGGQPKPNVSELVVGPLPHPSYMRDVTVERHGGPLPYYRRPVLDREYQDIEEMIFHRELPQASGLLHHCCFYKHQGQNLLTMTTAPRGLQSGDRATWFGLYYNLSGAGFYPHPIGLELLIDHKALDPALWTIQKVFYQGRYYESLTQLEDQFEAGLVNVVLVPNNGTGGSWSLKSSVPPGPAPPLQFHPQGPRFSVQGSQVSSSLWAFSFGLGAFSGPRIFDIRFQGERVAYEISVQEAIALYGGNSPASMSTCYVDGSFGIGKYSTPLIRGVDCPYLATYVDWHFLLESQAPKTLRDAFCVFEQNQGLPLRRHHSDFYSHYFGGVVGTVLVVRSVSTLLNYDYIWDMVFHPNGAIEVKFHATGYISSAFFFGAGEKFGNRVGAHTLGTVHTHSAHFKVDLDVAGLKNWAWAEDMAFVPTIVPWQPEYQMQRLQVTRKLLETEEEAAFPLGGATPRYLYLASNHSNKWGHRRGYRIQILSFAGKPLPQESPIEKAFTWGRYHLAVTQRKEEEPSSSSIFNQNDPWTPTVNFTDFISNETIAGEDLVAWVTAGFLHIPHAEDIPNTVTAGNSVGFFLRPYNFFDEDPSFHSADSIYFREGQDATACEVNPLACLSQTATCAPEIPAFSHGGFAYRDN
Description: Mice were orally administered the compound under study and sacrificed at various time points and abdominal fat, muscle and heart tissue collected.
SSAO/VAP-1 activity in the adipose tissue was determined as described in EXAMPLE 13.
Activity of the treated samples was analyzed using the fluorometric method described in EXAMPLE 9 for SSAO/VAP-1 activity, EXAMPLE 10 for MAO-B and EXAMPLE 11 for MAO-A activity (FIG. 8 and FIG. 9).

Compound	IC50 [1]	SSAO/VAP-1 activity in adipose tissue ([2]; 24-hour time point)	SSAO/VAP-1 activity in adipose tissue ([2]; various doses, 4 hours after administration)	adipose tissue SSAO/VAP-1 activity ([2]; mdx mice (C57BL/10ScSn-Dmdmdx/J), oral, FIG. 10)
NC/C(=C\F)C1Cc2ccccc2O1 (single isomer, unassigned; (-)) [PXS-5131, (−)-(E)-2-(2,3-Dihydrobenzofuran-2-Yl)-3-Fluoroprop-2-En-1-Amine Hydrochloride]	0.3 to 3 µM	–	–	–
N#Cc1ccc(OC/C(=C/F)CN)cc1 [Compound 1, (E)-4-((2-(aminomethyl)-3-fluoroallyl)oxy) benzonitrile]	> 30 µM	inhibition of the enzyme activity is still evident	dose-related reduction	completely inhibits
